Measured values: patent US6548540B2, “Method of treating cancer using dithiocarbamate derivatives” (Charlotte-Mecklenburg Hospital Authority, priority 1998, dated 2003)

Assays:
Assay type in all cases: cell-based, human
M1619 melanoma cells = assay: MTT proliferation assay, M1619 melanoma; details: CuSO4 supplementation of medium without disulfiram
Procedure: Human malignant cell lines were obtained from American Type Tissue Culture Collection (Rockville, Md.). Melanoma cells lines CRL 1585 and 1619 were cultured in RPMI 1640 (GIBCO-BRL, Life Technologies, Grand Island, N.Y.) with 10% FBS and passed with nonenzymatic Cell Dissociation Solution® (Sigma). The prostate adenocarcinoma cell line CRL 1435 (PC-3) was also cultured in RPMI 1640 with 10% FBS but passed with 0.05% trypsin and 0.53 mM EDTA. The squamous lung carcinoma NCI-H520 and the adenosquamous lung carcinoma NCI-H596 cell lines were grown in RPMI 1640 supplemented with 10% FBS, 10 mM HEPES and 1.0 mM sodium pyruvate and passed with trypsin/EDTA. The small cell lung carcinoma NCI-H82 was cultured as a suspension in RPMI 1640 with 10% FBS. All of the above were grown in a 37° C. humidified environment containing 5% CO2/air. The breast carcinoma cell line MDA-MB-453 was grown in a 37° C. humidified environment with free gas exchange with atmospheric air using Leibovitz's L-15 medium with 2 mM L-glutamine and 10% FBS and was passed with trypsin/EDTA.
The effect of disulfiram (0.15 to 5.0 μM), diethyldithiocarbamate (DDC, 1.0 μM) or PDTC (0.625 to 5.0 μM) on proliferation of malignant cell lines was studied in cultures stimulated with 10% FBS. Cell numbers were quantitated 24-72 hours later. In some experiments disulfiram or PDTC were added immediately after cells were plated. In other experiments, cells were plated and allowed to grow for 24-72 hours before fresh media with disulfiram or PDTC was added, and cell numbers were assayed 24-72 hours later.
Finally, a number of dithiocarbamate effects on cells have been attributed to increasing the intracellular levels of copper ions. To further probe the role of copper in mediating cytotoxicity from disulfiram, cells were cultured with or without addition of the impermeate Cu^2+ chelator bathocuprioinedisulfonic acid (BCPS, 100 μM) added to medium to sequester Cu^2+ in the extracellular compartment. Cells were also treated 12 hours with various concentration of disulfiram (0.625 to 5.0 μM) and intracellular copper levels were measured as outlined below.
Proliferation of cultured cells was quantitated using a previously reported calorimetric method based upon metabolic reduction of the soluble yellow tetrazolium dye 3-[4,5-dimethylthiazol]-2yl-2,5-diphenyl tetrazolium bromide (MTT) to its insoluble purple formazan by the action of mitochondrial succinyl dehydrogenase (See, e.g., S. J. Hirst, et al., “Quantifying proliferation of cultured human and rabbit airway smooth muscle in response to serum and platelet derived growth factor,” Am. J. Respir. Cell Mol. Biol. 7:574-581 (1992); R. Dashtaki, et al. R., supra; S. S. Brar, et al., “Requirement for reactive oxygen species in serum-induced and platelet-derived growth factor-induced growth of airway smooth muscle,” J. Biol. Chem. 274:20017-20026 (1999)). This assay empirically distinguishes between dead and living cells. For proliferation studies, cells were seeded into 24-well uncoated plastic plates (Costar) at 50,000 cells per well and cultured with respective media and mitogens.

cyclin A = assay: Immunoblot for cyclin A in M1619 cells; details: CuSO4 1.6 μM alone; 24 hours
Procedure: Cells were lysed and proteins were isolated and quantitated by immunoassay as previously detailed using 2 μg/ml of primary rabbit polyclonal antibodies against human bcl-2, p53, p21^WAF1/CiP1, cyclin A and cyclin B1, and peroxidase-labeled donkey polyclonal anti-rabbit IgG. Cells were placed on ice, washed twice with cold DPBS, scraped into 0.5 ml boiling buffer (10% [vol/vol] glycerol and 2% [wt/vol] sodium dodecyl sulfate [SDS] in 83 mM Tris, pH 6.8) and sheared by four passages through a pipette. Aliquots were removed for protein determination, using the BCA protein assay (Pierce). After 10% β-mercaptoethanol and 0.05% bromophenol blue were added, lysates were boiled for 5 min and stored at -80° C. until immunoblotting was performed. Proteins in defrosted samples were separated by SDS-polyacrylamide gel electrophoresis on 12% polyacrylamide gels (15 μg protein/lane) and electrotransferred to 0.45 μm Hybond ECL nitrocellulose membranes (Amersham Life Sciences) using the wet transblot method in transfer buffer (0.025 M Tris, 0.192 M glycine, 2.6 mM SDS, and 20%[vol/vol] methanol; pH 8.8) at 100 volts for 1 hour. Blots were blocked overnight at 4° C. with blocking buffer (PBS with 0.1% Tween 20) containing 5% fat-free milk powder (Carnation, Glendale, Calif.). After rinsing 5 times for 5 minutes each in PBS containing 0.1% Tween 20, blots were incubated for 1 hour at room temperature with 2.0 μg/ml of primary antibody. After rinsing again as above, blots were incubated for 1 hr at room temperature with horseradish peroxidase (HRP)-conjugated secondary antibody diluted 1:5,000 in blocking buffer. Immunoblots were rinsed again as above and detected via an enhanced chemiluminescence method (ECL Western blotting detection system, Amersham Life Science, Buckinghamshire, England). Autoradiographic film (X-OMAT AR, Eastman Kodak, Rochester, N.Y.) was exposed to immunoblots for 10, 30, or 60 seconds to obtain satisfactory images. Since disulfiram and copper disrupt transcription factor DNA binding to CRE, their effect on expression of cyclin A was studied. […]

M1619 cells = assay: Intracellular reactive oxygen species, dichlorofluorescin probe; details: CuSO4 0.2-1.6 μM
Procedure: Potential redox effects of disulfiram were studied in three sets of experiments. The importance of cellular glutathione (GSH) in mediating or modulating thiocarbamate toxicity was studied by measuring levels of intracellular GSH after treatment with disulfiram. […] Also, to assess whether a nonspecific antioxidant effect of disulfiram or PDTC might account for cellular growth inhibition, we studied the effect of the potent lipophilic antioxidant probucol (1.0 to 1,000 μM) on proliferation of malignant cell lines. […] A. Royall, et al., “Evaluation of 2′,7′-dichlorofluorescin and dihydrorhodamine 123 as fluorescent probes for intracellular H2O2 in cultured endothelial cells,” Archiv. Biochem. Biophys. 302:348-355 (1993)). […] Cells were plated in 24 well plastic plates at 50,000 cells per well and grown to confluence. Media was aspirated from wells and replaced with 100 μl medium containing 10 μM DCF-DA, and plates were incubated at 37° C. for 30 minutes. The DCF-DA containing media was aspirated, cells were washed twice with media alone and 100 μl fresh media was added to wells. […] The relative concentration of dichlorofluroescein was measured immediately by monitoring fluorescence at 37° C. using an excitation wavelength of 485 nm and emission wavelength of 535 nm.

In the case of `O=S(=O)([O-])[O-].[Cu+2]` [CuSO4, cupric sulfate], the “cell growth, copper alone” value (M1619 melanoma cells) is reported as “do not by themselves affect cell growth”, the “cyclin A expression” value (cyclin A) is reported as “little effect” and the “generation of reactive oxygen species (dichlorofluorescein fluorescence vs baseline)” value (M1619 cells) is reported as “not increased”.
